Assay results reported in ChEMBL document CHEMBL1201862, “PubChem BioAssay data set” (2004).
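Following 48 hours of exposure in 96-well plates, responses at five concentrations were used to interpolate endpoints linearly. The concentration for 50% growth inhibition is given as GI50.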 Calls of active or inactive are those of the source. Cut-off read from the data, not from the text of the source: active = GI50 up to about 1.1 µM and inactive = higher.

Experiments:
Assay in all cases: NCI-60 cell line screen, 48 h
MDA-MB-231 = test system: MDA-MB-231
PC-3 = test system: PC-3
SN12C = test system: SN12C
MOLT-4 = test system: MOLT-4
Malme-3M = test system: Malme-3M
A549 = test system: A549
RXF 393 = test system: RXF 393
LOX IMVI = test system: LOX IMVI
MCF7 = test system: MCF7
OVCAR-4 = test system: OVCAR-4
Hs-578T = test system: Hs-578T
TK-10 = test system: TK-10
DU-145 = test system: DU-145
NCI-H522 = test system: NCI-H522
SK-MEL-5 = test system: SK-MEL-5
SF-539 = test system: SF-539
UACC-62 = test system: UACC-62
COLO 205 = test system: COLO 205
RPMI-8226 = test system: RPMI-8226

Measured: GI50

COc1ccc(/C=C2\C=Cc3ccccc32)cc1OC
inactive: MDA-MB-231 78.3 µM | PC-3 46.5 µM | SN12C 60 µM | MOLT-4 38.6 µM | Malme-3M > 100 µM | A549 > 100 µM | RXF 393 50.4 µM | LOX IMVI > 100 µM | MCF7 > 100 µM | OVCAR-4 29.9 µM | Hs-578T 29.9 µM | TK-10 > 100 µM | DU-145 > 100 µM | NCI-H522 30.4 µM | SK-MEL-5 43.2 µM | SF-539 > 100 µM | UACC-62 23.1 µM | COLO 205 > 100 µM

CC(=O)CC1=C(OC(C)C)C2(OCCO2)C1O (stereo not drawn)
inactive: MDA-MB-231 > 100 µM | PC-3 > 100 µM | SN12C > 100 µM | MOLT-4 > 100 µM | Malme-3M > 100 µM | A549 > 100 µM | RXF 393 > 100 µM | LOX IMVI > 100 µM | MCF7 > 100 µM | OVCAR-4 > 100 µM | Hs-578T > 100 µM | TK-10 > 100 µM | DU-145 > 100 µM | NCI-H522 > 100 µM | SK-MEL-5 > 100 µM | SF-539 > 100 µM | UACC-62 > 100 µM | COLO 205 > 100 µM

Nc1ccnc2c1ncn2[C@H]1C[C@H](O)[C@@H](CO)O1
inactive: MDA-MB-231 > 100 µM | PC-3 > 100 µM | SN12C > 100 µM | MOLT-4 > 100 µM | A549 > 100 µM | RXF 393 > 100 µM | LOX IMVI > 100 µM | MCF7 > 100 µM | OVCAR-4 > 100 µM | Hs-578T > 100 µM | TK-10 > 100 µM | DU-145 > 100 µM | NCI-H522 > 100 µM | SK-MEL-5 > 100 µM | SF-539 > 100 µM | UACC-62 > 100 µM | COLO 205 > 100 µM

CCCSc1cc(Cl)c(C)cc1S(=O)(=O)n1ccnc1O
inactive: MDA-MB-231 > 100 µM | PC-3 > 100 µM | SN12C > 100 µM | MOLT-4 > 100 µM | Malme-3M > 100 µM | A549 > 100 µM | RXF 393 > 100 µM | LOX IMVI > 100 µM | MCF7 > 100 µM | OVCAR-4 > 100 µM | Hs-578T > 100 µM | TK-10 > 100 µM | DU-145 > 100 µM | NCI-H522 > 100 µM | SK-MEL-5 > 100 µM | SF-539 > 100 µM | UACC-62 > 100 µM | COLO 205 > 100 µM

NC(Cc1ccccc1)c1nccs1 (stereo not drawn)
inactive: MDA-MB-231 > 100 µM | PC-3 > 100 µM | SN12C > 100 µM | MOLT-4 > 100 µM | Malme-3M > 100 µM | A549 > 100 µM | LOX IMVI > 100 µM | MCF7 > 100 µM | OVCAR-4 > 100 µM | Hs-578T > 100 µM | TK-10 > 100 µM | DU-145 > 100 µM | NCI-H522 > 100 µM | SK-MEL-5 > 100 µM | SF-539 > 100 µM | UACC-62 > 100 µM | RPMI-8226 > 100 µM | COLO 205 > 100 µM

O=C(CSc1nccc(=O)[nH]1)c1ccccc1
inactive: MDA-MB-231 61.5 µM | PC-3 > 100 µM | SN12C 49.9 µM | MOLT-4 > 100 µM | Malme-3M 82.4 µM | A549 > 100 µM | RXF 393 > 100 µM | LOX IMVI 78.3 µM | MCF7 91 µM | OVCAR-4 > 100 µM | Hs-578T 16.1 µM | TK-10 > 100 µM | DU-145 > 100 µM | NCI-H522 > 100 µM | SK-MEL-5 > 100 µM | SF-539 39.8 µM | UACC-62 46.2 µM | COLO 205 > 100 µM

COP(=O)(C(/C=C/c1ccccc1)OC(C)=O)[C@@H]1CCCC[C@H]1N(CC(C)(C)C)C(C)=O (stereo partly drawn)
inactive: MDA-MB-231 14.8 µM | PC-3 14 µM | SN12C 14.8 µM | MOLT-4 7.93 µM | Malme-3M 18.2 µM | A549 16.8 µM | RXF 393 7.29 µM | LOX IMVI 15.8 µM | MCF7 22.5 µM | OVCAR-4 5.62 µM | Hs-578T 12.8 µM | TK-10 20.2 µM | DU-145 15 µM | NCI-H522 12.1 µM | SK-MEL-5 14 µM | SF-539 17.9 µM | UACC-62 14 µM | COLO 205 13.9 µM

CCCCCCCCCCCCCCCCCCNc1ccn(C2OC(COP(=O)(O)OCC3OC(n4cc(C)c(=O)[nH]c4=O)CC3N=[N+]=[N-])C(O)C2O)c(=O)n1 (stereo not drawn)
inactive: MDA-MB-231 22.1 µM | PC-3 8.81 µM | SN12C 21.7 µM | MOLT-4 16.4 µM | Malme-3M 16.9 µM | A549 52 µM | LOX IMVI 16.4 µM | MCF7 37 µM | OVCAR-4 25.7 µM | Hs-578T 23 µM | TK-10 16.8 µM | DU-145 95.5 µM | NCI-H522 13.3 µM | SK-MEL-5 22.8 µM | SF-539 17.8 µM | UACC-62 19.1 µM | RPMI-8226 11.8 µM | COLO 205 14.5 µM
